Data taken from patent US9371301B2, “Prenylarene compound and use thereof” (Osaka University, priority 2010, dated 2016).
Entries after “also recorded” stand apart in the source; their conditions may differ.

Legend:
[1] = test system: human prostate cancer DU145 cells; test: Selective inhibitory activity on hypoxic cancer cell growth (MTT, hypoxic conditions 1% O2); format: cell-based; details: for selective inhibitory activity on hypoxic cell growth: 24 h, MTT
Protocol: (§1) Analog-k5, which is represented by formula (II), and analog-k6, which is represented by formula (III), were used as test compounds and furospinosulin-1 was used as the control compound. The test compounds and the control compound were separately dissolved in EtOH, and the respective solutions were prepared at predetermined concentrations. The cells used were human prostate cancer DU145 cells. Analog-k6 was synthesized according to the method described in Example 1 for synthesis of analog-k5 except for using 3-bromothiophene instead of 3-bromofuran.
To each well of 96-well multiwell plates, 200 μL (1×10^4 cells/well) of a DU145 cell suspension was added, and preculture was performed under conditions of 5% CO2 and 37° C. for 4 hours. Then, the multiwell plates were placed in a hypoxic culture chamber (manufactured by Mitsubishi Gas Chemical Company, Inc.) of 1% O2, 5% CO2 and 94% N2 (hypoxic conditions) and culture was performed for 12 hours. Then, the test compound solutions in EtOH were added to the corresponding wells in a volume of 2 μL per well, and culture was further continued under hypoxic conditions for 24 hours. After 24 hours of culture, MTT (3-(4,5-dimethylthiazol-2-yl)-2,5-diphenyltetrazolium bromide) reagent prepared at 200 μg/mL was added in a volume of 50 μL per well, and culture was performed under conditions of 5% CO2 and 37° C. for 3 hours. Next, after removal of the culture medium, the resulting MTT formazan was extracted with 200 μL of DMSO per well. The amount of the formazan dye was quantified by a colorimetric method (OD 560 nm) and the ratio of growth inhibition was calculated.
(§2) Analog-f9, which is represented by formula (VI), and analog-k13, which is represented by formula (CI), were used as the test compounds, and both were evaluated for the selective inhibitory activity on hypoxic cancer cell growth according to the same method as described in Example 5.

[2] = test system: human prostate cancer DU145 cells; test: Inhibitory activity on normoxic cell growth (MTT); format: cell-based; details: for inhibitory activity on normoxic cell growth / inhibitory activity on normoxic cell growth as compared with furospinosulin-1: DU145; for inhibitory activity on normoxic cell growth as compared with furospinosulin-1: in a high dose
Protocol: as §1
Meanwhile, the inhibitory activity of the test compounds on normoxic cell growth was measured in the following manner. To each well of 96-well multiwell plates, 200 μL (1×10^4 cells/well) of a DU145 cell suspension was added, and culture was performed under conditions of 5% CO2 and 37° C. for 12 hours. Then, the test compound solutions in EtOH were added to the corresponding wells in a volume of 2 μL per well, and culture was further continued under the same conditions for 24 hours. After 24 hours of culture, as is the case in hypoxic conditions, the MTT reagent was added and finally the ratio of growth inhibition was calculated.
as §2

Mouse sarcoma S180 cells [3] = test: Antitumor activity in mouse cancer cell transplant model; format: in vivo; details: ddY mice; for tumor weight, % of that of the control group / weight loss, diarrhea, visual abnormalities in organs: once every two days, 7 times; for tumor weight, % of that of the control group: S180; for weight loss, diarrhea, visual abnormalities in organs: all dose groups; for weight loss, diarrhea, visual abnormalities in organs / antitumor activity: oral; for antitumor activity: S180 transplant model
Protocol: A suspension of the test compound analog-k5 was prepared at predetermined concentrations in 1% CMC. The vehicle (1% CMC) was administered to the control group.
Mouse sarcoma S180 cells were prepared as a suspension of the density of 1×10^7 cells/mL in a serum-free RPMI culture medium and the suspension was kept on ice. Then, 100 μL (1×10^6 cells) each of the cell suspension was subcutaneously inoculated to the ventral side in female ddY mice (5-week old, six mice/group) with an injection needle of 23G. The mice were maintained for one week for engraftment of the […]. The test compound (10 mg/kg, 25 mg/kg and 50 mg/kg) or the vehicle (1% CMC) was orally administered on a schedule of once every two days, 7 times in total. The antitumor activity was evaluated as follows: one day after the final administration, tumors were isolated and weighed and then the tumor weight was compared between the test compound administration groups and the control group. Significance analysis was performed using a Dunnett's test at a significance level of 5%.
Analog-f9, which is represented by formula (VI), and analog-k13, which is represented by formula (CI), were used as the test compounds, and both were evaluated for the antitumor activity in a mouse cancer cell transplant model according to the same method as described in Example 6. However, the number of mice per group was changed to four, and the doses of test compounds were changed to 3 mg/kg, 10 mg/kg and 25 mg/kg.

[4] = test system: human prostate cancer DU145 cells; details: Non Patent Literature 4; cited from earlier work
Mouse sarcoma S180 cells [5] = details: mice subcutaneously inoculated with S180 cells; Non Patent Literature 4; cited from earlier work
[6] = test system: insulin-like growth factor 2 (IGF-2); details: mechanism of action; Non Patent Literature 4; cited from earlier work
[7] = at 1000 μM, DU145, hypoxic (1% O2) vs normoxic

Compound	selective inhibitory activity on hypoxic cell growth [1, 7]	inhibitory activity on normoxic cell growth ([2]; concentrations of 10 μM or lower)	inhibitory activity on normoxic cell growth ([2]; concentrations of 100 μM or lower)	inhibitory activity on normoxic cell growth as compared with furospinosulin-1 [2]	tumor weight, % of that of the control group (Mouse sarcoma S180 cells [3]; 10 mg/kg oral) [%]	tumor weight, % of that of the control group (Mouse sarcoma S180 cells [3]; 25 mg/kg oral) [%]	weight loss, diarrhea, visual abnormalities in organs (Mouse sarcoma S180 cells [3])	tumor weight, % of that of the control group (Mouse sarcoma S180 cells [3]; 50 mg/kg oral) [%]	antitumor activity (Mouse sarcoma S180 cells [3])	selective inhibition of hypoxic cell growth compared with furospinosulin-1 ([1]; entire range of tested concentrations, DU145)	tumor weight, % of that of the control group (Mouse sarcoma S180 cells [3]; 3 mg/kg oral) [%]	selective inhibitory activity on hypoxic cell growth ([1]; concentrations of 300 μM or lower, DU145, hypoxic vs normoxic)	growth inhibitory activity against normoxic cells ([2]; at 1000 μM, DU145, 24 h, MTT)	in vitro cancer cell growth inhibition, hypoxia selectivity [4]	in vivo tumor weight as compared with the control (Mouse sarcoma S180 cells [5])	hypoxia-inducible expression of IGF-2 [6]
CC(C)=CCC/C(C)=C/CC/C(C)=C/CC/C(C)=C/CC/C(C)=C/CCc1ccsc1 [analog-f9]	showed selective inhibitory activity on hypoxic cell growth	hardly inhibits normoxic cell growth	remarkably low inhibitory activity on normoxic cell growth	lower inhibitory activity on normoxic cell growth	29	18	In no administration groups, regardless of the kind of test compound, weight loss or diarrhea, or visual abnormalities in organs of the mice were observed									
CC(C)=CCC/C(C)=C/CC/C(C)=C/CC/C=C/CCc1ccoc1 [analog-k5]	showed selective inhibitory activity on hypoxic cell growth			lower inhibitory activity on normoxic cell growth	70	41	In no administration groups, weight loss or diarrhea, or visual abnormalities in organs of the mice were observed	28	showed marked antitumor activity							
CC(C)=CCC/C(C)=C/CC/C(C)=C/CC/C=C/CCc1ccsc1 [analog-k6]	showed selective inhibitory activity on hypoxic cell growth			lower inhibitory activity on normoxic cell growth												
C#CCC/C(C)=C/CC/C(C)=C/CC/C(C)=C/CC/C(C)=C/CCc1ccoc1 [analog-k13]	showed selective inhibitory activity on hypoxic cell growth			lower inhibitory activity on normoxic cell growth	41	28	In no administration groups, regardless of the kind of test compound, weight loss or diarrhea, or visual abnormalities in organs of the mice were observed		showed marked antitumor activity	stronger than that of furospinosulin-1	70					
CC(C)=CCC/C(C)=C/CC/C(C)=C/CC/C(C)=C/CCc1ccoc1 [furospinosulin-1, reference compound]	equal growth inhibitory activity against normoxic cells and hypoxic cells; also recorded: not selective for hypoxic cells											showed selective inhibitory activity on hypoxic cell growth	showed growth inhibitory activity even against normoxic cells	inhibits in vitro cancer cell growth in a hypoxia-selective manner	significantly reduces in vivo tumor weight	inhibition of hypoxia-inducible expression of insulin-like growth factor 2 (IGF-2)
